Reference: PubChem BioAssay (NCI)
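Results reflect a 48-hour exposure of cells in 96-well plates to compound at five concentrations. Abbreviation: GI50, concentration required for 50% inhibition of growth. TGI denotes the concentration required for complete inhibition of growth.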

How the values were obtained:
Assay in all cases: NCI anticancer screen, dose series, 48 h
SN12C renal = tested on: SN12C renal
MCF7 breast = tested on: MCF7 breast
TK-10 renal = tested on: TK-10 renal
CAKI-1 renal = tested on: CAKI-1 renal
MDA-MB-435 = tested on: MDA-MB-435
A498 renal = tested on: A498 renal
M14 melanoma = tested on: M14 melanoma
KM12 colon = tested on: KM12 colon
NCI-H23 lung = tested on: NCI-H23 lung
MOLT-4 leukemia = tested on: MOLT-4 leukemia
SK-MEL-2 melanoma = tested on: SK-MEL-2 melanoma
HL-60(TB) leukemia = tested on: HL-60(TB) leukemia
OVCAR-4 ovarian = tested on: OVCAR-4 ovarian
HOP-92 NSCLC = tested on: HOP-92 NSCLC
SNB-19 CNS = tested on: SNB-19 CNS
SR leukemia = tested on: SR leukemia
OVCAR-3 ovarian = tested on: OVCAR-3 ovarian
SF-268 CNS = tested on: SF-268 CNS
HCT-15 colon = tested on: HCT-15 colon
HOP-62 NSCLC = tested on: HOP-62 NSCLC
HCC-2998 colon = tested on: HCC-2998 colon
IGROV1 ovarian = tested on: IGROV1 ovarian
SK-MEL-5 melanoma = tested on: SK-MEL-5 melanoma
PC-3 prostate = tested on: PC-3 prostate
NCI-H522 lung = tested on: NCI-H522 lung
SF-539 CNS = tested on: SF-539 CNS
786-0 renal = tested on: 786-0 renal
SK-OV-3 ovarian = tested on: SK-OV-3 ovarian
MDA-N = tested on: MDA-N
UO-31 renal = tested on: UO-31 renal
MDA-MB-231 breast = tested on: MDA-MB-231 breast
SF-295 CNS = tested on: SF-295 CNS
NCI/ADR-RES ovarian = tested on: NCI/ADR-RES ovarian
NCI-H460 lung = tested on: NCI-H460 lung
K-562 leukemia = tested on: K-562 leukemia
COLO 205 colon = tested on: COLO 205 colon
OVCAR-5 ovarian = tested on: OVCAR-5 ovarian
RPMI-8226 leukemia = tested on: RPMI-8226 leukemia
SW-620 colon = tested on: SW-620 colon
EKVX NSCLC = tested on: EKVX NSCLC
NCI-H226 lung = tested on: NCI-H226 lung
OVCAR-8 ovarian = tested on: OVCAR-8 ovarian
U251 CNS = tested on: U251 CNS
CCRF-CEM leukemia = tested on: CCRF-CEM leukemia
RXF 393 renal = tested on: RXF 393 renal
ACHN renal = tested on: ACHN renal
LOX IMVI melanoma = tested on: LOX IMVI melanoma
T-47D breast = tested on: T-47D breast
SK-MEL-28 melanoma = tested on: SK-MEL-28 melanoma
A549 NSCLC = tested on: A549 NSCLC
HT29 colon = tested on: HT29 colon
UACC-62 melanoma = tested on: UACC-62 melanoma
HCT-116 colon = tested on: HCT-116 colon
BT-549 breast = tested on: BT-549 breast
UACC-257 melanoma = tested on: UACC-257 melanoma
SNB-75 CNS = tested on: SNB-75 CNS
HS 578T breast = tested on: HS 578T breast
DU-145 prostate = tested on: DU-145 prostate
MALME-3M melanoma = tested on: MALME-3M melanoma

## CC(C)CC(=O)CC(C)[C@]1(CCCOCc2ccccc2)C(=O)N2CCC3(C[C@@]24CCC[C@H]41)OCCO3 (stereo not given in full)
SN12C renal
  TGI: > 10 µM
MCF7 breast
  TGI: > 10 µM
TK-10 renal
  TGI: > 10 µM
CAKI-1 renal
  TGI: > 10 µM
MDA-MB-435
  TGI: > 10 µM
A498 renal
  TGI: > 10 µM
M14 melanoma
  TGI: > 10 µM
KM12 colon
  TGI: > 10 µM
NCI-H23 lung
  TGI: > 10 µM
MOLT-4 leukemia
  TGI: > 10 µM
SK-MEL-2 melanoma
  TGI: > 10 µM
HL-60(TB) leukemia
  TGI: > 10 µM
OVCAR-4 ovarian
  TGI: > 10 µM
HOP-92 NSCLC
  TGI: > 10 µM
SNB-19 CNS
  TGI: > 10 µM
SR leukemia
  TGI: > 10 µM
OVCAR-3 ovarian
  TGI: > 10 µM
SF-268 CNS
  TGI: > 10 µM
HCT-15 colon
  TGI: > 10 µM
HOP-62 NSCLC
  TGI: > 10 µM
HCC-2998 colon
  TGI: > 10 µM
IGROV1 ovarian
  TGI: > 10 µM
SK-MEL-5 melanoma
  TGI: > 10 µM
PC-3 prostate
  TGI: > 10 µM
NCI-H522 lung
  TGI: > 10 µM
SF-539 CNS
  TGI: > 10 µM
786-0 renal
  TGI: > 10 µM
SK-OV-3 ovarian
  TGI: > 10 µM
MDA-N
  TGI: > 10 µM
UO-31 renal
  TGI: > 10 µM
MDA-MB-231 breast
  TGI: > 10 µM
SF-295 CNS
  TGI: > 10 µM
NCI/ADR-RES ovarian
  TGI: > 10 µM
NCI-H460 lung
  TGI: > 10 µM
K-562 leukemia
  TGI: > 10 µM
COLO 205 colon
  TGI: > 10 µM
OVCAR-5 ovarian
  TGI: > 10 µM
RPMI-8226 leukemia
  TGI: > 10 µM
SW-620 colon
  TGI: > 10 µM
EKVX NSCLC
  TGI: > 10 µM
NCI-H226 lung
  TGI: > 10 µM
OVCAR-8 ovarian
  TGI: > 10 µM
U251 CNS
  TGI: > 10 µM
CCRF-CEM leukemia
  TGI: > 10 µM

## COc1cccc(/C=N\NC(=O)c2ccncc2)c1O
RXF 393 renal
  GI50: 5.49 µM
  TGI: > 100 µM
SN12C renal
  GI50: 8.41 µM
  TGI: > 100 µM
MCF7 breast
  GI50: 6.27 µM
  TGI: > 100 µM
TK-10 renal
  GI50: 4.78 µM
  TGI: > 100 µM
CAKI-1 renal
  GI50: 1.88 µM
  TGI: 17.6 µM
MDA-MB-435
  GI50: 19.2 µM
  TGI: > 100 µM
A498 renal
  GI50: 51.1 µM
  TGI: > 100 µM
M14 melanoma
  GI50: 4.68 µM
  TGI: > 100 µM
KM12 colon
  GI50: 6.06 µM
  TGI: > 100 µM
ACHN renal
  GI50: 2.96 µM
  TGI: > 100 µM
NCI-H23 lung
  GI50: 5.28 µM
  TGI: > 100 µM
MOLT-4 leukemia
  GI50: 3.04 µM
  TGI: > 100 µM
SK-MEL-2 melanoma
  GI50: 53.2 µM
  TGI: > 100 µM
HL-60(TB) leukemia
  GI50: 2.27 µM
  TGI: 8.73 µM
OVCAR-4 ovarian
  GI50: 2.43 µM
  TGI: > 100 µM
HOP-92 NSCLC
  GI50: 3.16 µM
  TGI: > 100 µM
SNB-19 CNS
  GI50: 6.72 µM
  TGI: > 100 µM
SR leukemia
  GI50: 2.98 µM
  TGI: > 100 µM
OVCAR-3 ovarian
  GI50: 4.61 µM
  TGI: > 100 µM
SF-268 CNS
  GI50: 3.47 µM
  TGI: > 100 µM
LOX IMVI melanoma
  GI50: 2.2 µM
  TGI: > 100 µM
HCT-15 colon
  GI50: 2.87 µM
  TGI: > 100 µM
T-47D breast
  GI50: 3.46 µM
  TGI: > 100 µM
HOP-62 NSCLC
  GI50: 5.36 µM
  TGI: > 100 µM
SK-MEL-28 melanoma
  GI50: 19.1 µM
  TGI: > 100 µM
A549 NSCLC
  GI50: 11 µM
  TGI: > 100 µM
HCC-2998 colon
  GI50: 4.73 µM
  TGI: > 100 µM
HT29 colon
  GI50: 21.5 µM
  TGI: > 100 µM
IGROV1 ovarian
  GI50: 6.98 µM
  TGI: > 100 µM
SK-MEL-5 melanoma
  GI50: 6.29 µM
  TGI: 29 µM
UACC-62 melanoma
  GI50: 3.62 µM
  TGI: 34.6 µM
PC-3 prostate
  GI50: 8.01 µM
  TGI: > 100 µM
NCI-H522 lung
  GI50: 3.24 µM
  TGI: > 100 µM
HCT-116 colon
  GI50: 3.47 µM
  TGI: > 100 µM
SF-539 CNS
  GI50: 6.07 µM
  TGI: > 100 µM
786-0 renal
  GI50: 3.53 µM
  TGI: 30.6 µM
SK-OV-3 ovarian
  GI50: 6.45 µM
  TGI: > 100 µM
BT-549 breast
  GI50: 4.48 µM
  TGI: 68.3 µM
UACC-257 melanoma
  GI50: 5 µM
  TGI: > 100 µM
UO-31 renal
  GI50: 2.36 µM
  TGI: 56.8 µM
MDA-MB-231 breast
  GI50: 7.61 µM
  TGI: > 100 µM
SF-295 CNS
  GI50: 3.35 µM
  TGI: 71.2 µM
NCI/ADR-RES ovarian
  GI50: 2.84 µM
  TGI: > 100 µM
NCI-H460 lung
  GI50: 3.63 µM
  TGI: > 100 µM
SNB-75 CNS
  GI50: 47.6 µM
  TGI: > 100 µM
K-562 leukemia
  GI50: 13.7 µM
  TGI: > 100 µM
COLO 205 colon
  GI50: 4.9 µM
  TGI: > 100 µM
OVCAR-5 ovarian
  GI50: 12.9 µM
  TGI: > 100 µM
RPMI-8226 leukemia
  GI50: 5.48 µM
  TGI: > 100 µM
HS 578T breast
  GI50: > 100 µM
  TGI: > 100 µM
SW-620 colon
  GI50: 7.48 µM
  TGI: > 100 µM
EKVX NSCLC
  GI50: 6.78 µM
  TGI: > 100 µM
DU-145 prostate
  GI50: 5.13 µM
  TGI: > 100 µM
MALME-3M melanoma
  GI50: 6.62 µM
  TGI: 88.3 µM
NCI-H226 lung
  GI50: 10.4 µM
  TGI: > 100 µM
OVCAR-8 ovarian
  GI50: 4.54 µM
  TGI: > 100 µM
U251 CNS
  GI50: 2.95 µM
  TGI: > 100 µM
CCRF-CEM leukemia
  GI50: 1.86 µM
  TGI: > 100 µM
